According to patent publication US20140228287A1, “1-[(3-CYANO-PYRIDIN-2-YL)METHYL]-3-METHYL-7-(2-BUTYN-1-YL)-8-[3-(R)-AMINO-PIPERIDIN-1-YL]-AXANTHINE FOR THE TREATMENT OF A METABOLIC DISORDER OF A PREDOMINANTLY CARNIVOROUS NON-HUMAN ANIMAL” (BOEHRINGER INGELHEIM VETMEDICA GMBH, priority 2010, published 2014):
Counter-ions that a name gives are not always drawn.

Legend:
[1] = target: Prolyl-Oligo Peptidase (or Prolyl Endopeptidase) (Homo sapiens, UniProt P48147); assay: In vitro selectivity, human proteases: Prolyl-Oligo Peptidase; format: biochemical; settings: up to 100 μM
Description: (§1) In order to determine the in vitro selectivity of 1-[(3-cyano-pyridin-2-yl)methyl]-3-methyl-7-(2-butyn-1-yl)-8-[3-(R)-amino-piperidin-1-yl]-xanthine, the ability of this compound to inhibit a number of human proteases was investigated as described in Thomas et al. (2008), J. Pharmacol. Exp. Ther., vol. 325, p. 175-182, chapter In vitro DPP-4 Inhibition Assay, p. 176.

[2] = system: amino-peptidase P; assay: In vitro selectivity, human proteases: amino-peptidase P; format: biochemical; settings: up to 100 μM
Description: as §1

[3] = target: DPP 8 (Homo sapiens, UniProt Q6V1X1); assay: In vitro selectivity, human proteases: DPP 8; format: biochemical
Description: as §1

[4] = system: plasma DPP IV; assay: Plasma DPP IV activity after oral administration, Beagle dog; format: in vivo; settings: 3 mg/kg oral, 24 hours post dose
Protocol: The effect of 1-[(3-cyano-pyridin-2-yl)methyl]-3-methyl-7-(2-butyn-1-yl)-8-[3-(R)-amino-piperidin-1-yl]-xanthine on plasma DPP IV activity after oral administration was investigated in the rat, the Beagle dog and the Rhesus monkey. These investigations were conducted as described in the following.
Overnight fasted male Beagle dogs (n=4 per group) were administered oral doses of 1-[(3-cyano-pyridin-2-yl)methyl]-3-methyl-7-(2-butyn-1-yl)-8-[3-(R)-amino-piperidin-1-yl]-xanthine monohydrochloride at 3 and 12 mg/kg body weight. Blood samples were drawn from a butterfly inserted in either the right or left forearm vein. Blood was collected in EDTA tubes prior to administration of 1-[(3-cyano-pyridin-2-yl)methyl]-3-methyl-7-(2-butyn-1-yl)-8-[3-(R)-amino-piperidin-1-yl]-xanthine monohydrochloride and subsequently at 1, 2, 4, 8, and 24 hour time points post dose. Plasma was prepared following blood collection and frozen for determination of DPP-IV activity.

[5] = system: diabetic ZDF rats; assay: Delayed OGTT in diabetic ZDF rats; format: in vivo, rat; settings: 1 mg/kg 16 hours before the test
Protocol: A delayed oral glucose tolerance test (OGTT) was applied to diabetic db/db mice and diabetic ZDF rats, as describes in the following.
Male Zucker Diabetic Fatty (ZDF) rats (ZDF/Crl-Leprfa) were obtained from Charles River (USA). Animals were fed ad libitum with a special pelleted diet (Diet No. 2437 [containing 4.5% sucrose], Provimi Kliba, Switzerland) and had free access to water. Animals were housed in groups with a 12 h/12 h light/dark cycle (lights out between 6 p.m. and 6 a.m.). The rats were used for the experiments at 12 weeks of age.
The day before the OGTT, a blood sample from db/db mice or ZDF rats fasted for 2 hours was obtained by cutting the tip of the tail without anaesthesia and the animals were randomized for glucose (n=7 per group). The animals were fed again for 2 hours and then orally administered with either vehicle or 1-[(3-cyano-pyridin-2-yl)methyl]-3-methyl-7-(2-butyn-1-yl)-8-[3-(R)-amino-piperidin-1-yl]-xanthine monohydrochloride at doses between 0.3 and 3 mg/kg bw. A basal blood sample (pre-load) was obtained the next morning after overnight fasting for 16 hours by cutting the tip of the tail without anaesthesia. […] Additional blood samples were taken from the tip of the tail 30 min, 60 min, 90 min, 120 min, and 180 min after the glucose load, and blood glucose was measured. […]

[6] = target: T1, plasma DPP-4 (Rattus norvegicus, UniProt P14740); assay: Inhibition of DPP-4 in rat plasma (in vitro); format: biochemical; settings: wistar rat plasma
T1 construct: from tissue
Protocol: Plasma obtained from 3 different cats and one Wistar rat as control were each incubated with a range of concentrations of 1-[(3-cyano-pyridin-2-yl)methyl]-3-methyl-7-(2-butyn-1-yl)-8-[3-(R)-amino-piperidin-1-yl]-xanthine monohydrochloride. Plasma DPP-4 activity was measured in the following way (which is also described in Eckhard et al. (2007), J. Med. Chem., Vol. 50, 6450-6453, Supporting Information).
Rat and cat plasma was used for ex vivo measurement of DDP-4 activity. Blood was collected in EDTA tubes and subjected to centrifugation. The resultant supernatant was aliquoted and frozen. […]
The assay itself was initiated by mixing 50 μl of diluted plasma with 50 μl of diluted substrate (Ala-Pro-AFC) and performed in black flat-bottom 96-well plates. The plates were then incubated at room temperature for 1 h and fluorescence was measured at excitation/emission wavelengths of 405/535 nm. Data analysis was performed by calculating the fluorescence in the presence of the test compound compared to the fluorescence of the vehicle control after subtracting the background fluorescence.
From a plot of concentration against activity (equivalent to fluorescence units) kinetic data could be collected, e.g. the half-maximal inhibitory concentration (IC50) of the tested compound in the different animals, which data are given in the following Table 2.

[7] = Multiple dose study (14 days) in cats: adverse events; format: in vivo, cat; settings: 1, 3, 9 mg/animal once daily oral for 14 days
Protocol: The aim of this study was to investigate the PK/PD effects of 1-[(3-cyano-pyridin-2-yl)methyl]-3-methyl-7-(2-butyn-1-yl)-8-[3-(R)-amino-piperidin-1-yl]-xanthine in cats following repeated oral administration of 0, 1, 3 and 9 mg/animal over 14 days corresponding to a dose of 0, 0.25, 0.75 and 2.25 mg/kg body weight for a cat weighing 4 kg. (Dosages were based on the free base: 1 mg 1-[(3-cyano-pyridin-2-yl)methyl]-3-methyl-7-(2-butyn-1-yl)-8-[3-(R)-amino-piperidin-1-yl]-xanthine monohydrochloride corresponds to 0.923 mg 1-[(3-cyano-pyridin-2-yl)methyl]-3-methyl-7-(2-butyn-1-yl)-8-[3-(R)-amino-piperidin-1-yl]-xanthine free base).
For this purpose, twelve clinically healthy male adult domestic short hair cats with a body weight range of 3.5-4.8 kg were used. The animals were randomly allocated to 4 groups, 3 animals per group. All animals were treated once daily orally for 14 days (i.e. on days 0-13). The test article was administered via capsules at doses of 1 (group II), 3 (group III) or 9 (group IV) mg of the monohydrochloride compound per animal; group I received placebo serving as controls. Blood samples for PK and PD (DPP IV activity) investigations were drawn at 0 h (i.e. prior to the 1st treatment), 0.5, 1, 2, 4, 8, 12 and 24 h after the 1st treatment as well as 24 h after the 3rd, 5th, 7th, 9th, 11th and 13th treatment and 0.5, 1, 2, 4, 8, 12 and 24 h after the 14th treatment.

T1 sequence (P14740 37-767 limits assumed): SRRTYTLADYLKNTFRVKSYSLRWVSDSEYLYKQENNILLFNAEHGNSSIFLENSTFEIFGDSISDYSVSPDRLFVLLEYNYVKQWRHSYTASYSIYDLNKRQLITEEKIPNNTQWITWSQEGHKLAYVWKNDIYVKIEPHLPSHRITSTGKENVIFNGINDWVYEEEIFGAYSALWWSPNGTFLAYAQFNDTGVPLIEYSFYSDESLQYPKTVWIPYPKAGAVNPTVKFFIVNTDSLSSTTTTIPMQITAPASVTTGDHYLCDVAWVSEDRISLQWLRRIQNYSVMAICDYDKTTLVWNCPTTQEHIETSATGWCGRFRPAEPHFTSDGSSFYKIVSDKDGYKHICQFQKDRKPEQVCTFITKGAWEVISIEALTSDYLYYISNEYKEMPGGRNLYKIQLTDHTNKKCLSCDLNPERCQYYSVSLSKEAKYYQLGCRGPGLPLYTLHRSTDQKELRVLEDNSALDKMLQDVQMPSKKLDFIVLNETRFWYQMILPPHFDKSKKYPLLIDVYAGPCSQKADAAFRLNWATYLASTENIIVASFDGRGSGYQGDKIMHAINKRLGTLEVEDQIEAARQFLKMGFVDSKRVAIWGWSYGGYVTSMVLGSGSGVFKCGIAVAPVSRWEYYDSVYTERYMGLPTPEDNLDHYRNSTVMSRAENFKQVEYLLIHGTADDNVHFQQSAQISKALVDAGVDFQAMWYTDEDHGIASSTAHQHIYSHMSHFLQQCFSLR
DPP 8, sequence (Q6V1X1 whole entry): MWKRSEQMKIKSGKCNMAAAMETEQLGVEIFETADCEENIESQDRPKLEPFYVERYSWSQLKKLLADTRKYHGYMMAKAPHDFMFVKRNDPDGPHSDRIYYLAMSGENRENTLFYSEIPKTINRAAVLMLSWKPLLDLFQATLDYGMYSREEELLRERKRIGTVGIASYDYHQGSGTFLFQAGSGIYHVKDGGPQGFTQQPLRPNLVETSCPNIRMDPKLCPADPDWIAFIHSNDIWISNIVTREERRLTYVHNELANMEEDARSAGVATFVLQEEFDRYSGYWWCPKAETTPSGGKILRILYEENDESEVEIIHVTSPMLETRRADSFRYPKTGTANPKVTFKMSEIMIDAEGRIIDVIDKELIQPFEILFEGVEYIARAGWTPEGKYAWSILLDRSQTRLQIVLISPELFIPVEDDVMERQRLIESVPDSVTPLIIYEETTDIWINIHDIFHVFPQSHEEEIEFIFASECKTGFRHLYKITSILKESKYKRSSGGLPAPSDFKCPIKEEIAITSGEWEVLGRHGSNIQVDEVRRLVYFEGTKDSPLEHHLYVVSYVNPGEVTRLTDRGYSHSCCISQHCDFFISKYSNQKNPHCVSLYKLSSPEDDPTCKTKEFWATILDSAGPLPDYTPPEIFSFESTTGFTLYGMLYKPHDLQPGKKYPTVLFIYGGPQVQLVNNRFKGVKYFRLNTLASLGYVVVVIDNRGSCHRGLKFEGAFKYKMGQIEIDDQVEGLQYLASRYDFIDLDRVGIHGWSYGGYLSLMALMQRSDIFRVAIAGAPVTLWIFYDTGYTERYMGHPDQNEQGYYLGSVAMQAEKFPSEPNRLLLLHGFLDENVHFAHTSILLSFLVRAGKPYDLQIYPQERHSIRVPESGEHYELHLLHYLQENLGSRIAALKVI
Prolyl-Oligo Peptidase (or Prolyl Endopeptidase), sequence (P48147 whole entry): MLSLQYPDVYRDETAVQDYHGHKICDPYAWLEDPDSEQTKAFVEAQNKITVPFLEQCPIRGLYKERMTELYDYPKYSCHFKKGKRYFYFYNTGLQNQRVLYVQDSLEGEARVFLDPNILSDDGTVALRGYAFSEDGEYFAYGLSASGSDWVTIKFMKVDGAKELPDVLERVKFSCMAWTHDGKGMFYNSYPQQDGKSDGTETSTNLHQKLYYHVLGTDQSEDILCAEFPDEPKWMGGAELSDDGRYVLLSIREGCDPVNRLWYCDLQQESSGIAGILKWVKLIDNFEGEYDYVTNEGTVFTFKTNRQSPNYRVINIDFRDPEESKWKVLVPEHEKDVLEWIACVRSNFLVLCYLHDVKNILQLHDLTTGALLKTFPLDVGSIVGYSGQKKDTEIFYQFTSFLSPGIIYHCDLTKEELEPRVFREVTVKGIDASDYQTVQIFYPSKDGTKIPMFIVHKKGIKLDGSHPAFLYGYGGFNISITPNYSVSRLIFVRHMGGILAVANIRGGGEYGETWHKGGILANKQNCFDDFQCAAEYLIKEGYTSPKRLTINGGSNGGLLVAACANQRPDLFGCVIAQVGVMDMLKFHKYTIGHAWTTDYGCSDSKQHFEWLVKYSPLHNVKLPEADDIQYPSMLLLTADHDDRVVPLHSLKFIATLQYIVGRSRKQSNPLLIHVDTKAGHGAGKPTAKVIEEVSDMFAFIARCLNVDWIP

CC#CCn1c(N2CCC[C@@H](N)C2)nc2c1c(=O)n(Cc1ncccc1C#N)c(=O)n2C [1-[(3-cyano-pyridin-2-yl)methyl]-3-methyl-7-(2-butyn-1-yl)-8-[3-(R)-amino-piperidin-1-yl]-xanthine monohydrochloride]
inhibitory effect on Prolyl-Oligo Peptidase [1]: did not exert any inhibitory effect
inhibitory effect on amino-peptidase P [2]: did not exert any inhibitory effect
IC50 [3]: 95 µM
inhibition of plasma DPP IV activity [4]: 76%
suppression of glucose excursion in OGTT [5]: 35%
IC50 [6]: 0.00195 µM
hillslope [6]: −0.8462
adverse events [7]: No adverse events specifically attributable to the test article were noted
